Measured values taken from patent US8389541B2, “Inhibitors of protein tyrosine kinase activity” (MethylGene Inc., priority 2007, dated 2013).

molecular target: T1, VEGF receptor KDR (Homo sapiens, UniProt P35968); assay: In vitro receptor tyrosine kinase assay (DELFIA), VEGF receptor KDR; assay type: biochemical; conditions: GST-VEGFR2 806-1356, 0.6 uM ATP; read-out: VEGFR IC50
T1 construct: made in house; host or cells: Sf9 cells (Spodoptera frugiperda), baculovirus
From the text: In the case of VEGF receptor KDR a 1.6-kb cDNA corresponding to the catalytic domain of VEGFR2 or KDR (Genbank accession number AF035121 amino acid 806 to 1356) is cloned into the Pst I site of the pDEST20 Gateway vector (Invitrogen) for the production of a GST-tagged version of that enzyme.
The GST-VEGFR2806-1356 protein is expressed in Sf9 cells (Spodoptera frugiperda) upon infection with recombinant baculovirus construct.
The supernatant is loaded onto a GST-agarose column (Sigma) equilibrated with PBS pH 7.3. Following a four column volume (CV) wash with PBS pH 7.3+1% Triton X-100 and 4 CV wash with buffer B (50 mM Tris pH 8.0, 20% glycerol and 100 mM NaCl), bound proteins are step eluted with 5 CV of buffer B supplemented with 5 mM DTT and 15 mM glutathion. […] Final GST-VEGFR2806-1356 protein preparations concentrations are about 0.7 mg/ml with purity approximating 70%.

T1 sequence (P35968 806-1356): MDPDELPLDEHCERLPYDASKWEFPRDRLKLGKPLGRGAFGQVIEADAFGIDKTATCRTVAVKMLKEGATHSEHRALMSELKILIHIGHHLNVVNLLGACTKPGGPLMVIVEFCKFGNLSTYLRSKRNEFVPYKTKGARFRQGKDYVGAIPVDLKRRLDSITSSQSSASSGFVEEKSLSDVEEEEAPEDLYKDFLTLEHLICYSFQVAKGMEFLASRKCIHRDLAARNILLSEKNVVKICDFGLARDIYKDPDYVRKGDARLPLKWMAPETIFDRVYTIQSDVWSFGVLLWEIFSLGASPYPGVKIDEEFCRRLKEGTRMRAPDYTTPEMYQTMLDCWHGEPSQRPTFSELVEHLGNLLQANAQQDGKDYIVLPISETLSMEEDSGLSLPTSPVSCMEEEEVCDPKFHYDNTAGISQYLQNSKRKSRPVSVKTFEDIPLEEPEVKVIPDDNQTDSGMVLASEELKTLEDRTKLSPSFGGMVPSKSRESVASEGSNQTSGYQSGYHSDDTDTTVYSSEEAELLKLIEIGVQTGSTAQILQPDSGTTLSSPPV

IC50 [nM]	SMILES
< 250	COCCNCc1ccc(-c2cc3nccc(Oc4ccc(NC(=O)CC(=O)N(C)c5ccccc5)cc4F)c3s2)nc1 [drawing 346]
< 250	CN(C(=O)CC(=O)Nc1ccc(Oc2ccnc3cc(-c4ccc(CNCCS(C)(=O)=O)cc4)sc23)c(F)c1)c1ccccc1 [drawing 347]
< 250	COCCNCc1ccc(-c2cc3nccc(Oc4ccc(NC(=O)C5(C(=O)Nc6ccccc6)CC5)cc4F)c3s2)nc1 [drawing 350]
< 250	COCCNCc1ccc(-c2cc3nccc(Oc4ccc(NC(=O)CC(=O)N(C)c5ccc(F)cc5)cc4F)c3s2)nc1 [drawing 352]

test system: A549 cells; assay: Wound healing assay in A549 cells (HGF-stimulated); assay type: cell-based; conditions: Homo sapiens, last dose that inhibited gap closing by more than 25%, 24 h, read-out: A549 WOUND_HEALING IC50
Experimental: Wound healing assay in A549 cells. A549 cells (ATCC) are seeded in DMEM low glucose medium complemented with 10% FBS into 24-well plates at a density of 7.5×10^4 cells/well and grown to confluence (48 h). Inhibitors were added to the medium at a range of doses (0.00032-10 uM) for 3 h at which point a gap is introduced by scraping cells with a P1000 pipette tip. Cells are then stimulated to migrate by the addition of HGF (in the form of conditioned medium from 293T cells over-expressing the human HGF gene) and the culture is continued for 24 h. […] For the purpose of standardization, a control is carried on every assay plates.

IC50 [nM]	SMILES
250 to 500	COCCNCc1ccc(-c2cc3nccc(Oc4ccc(NC(=O)CC(=O)N(C)c5ccccc5)cc4F)c3s2)nc1 [drawing 346]
250 to 500	CN(C(=O)CC(=O)Nc1ccc(Oc2ccnc3cc(-c4ccc(CNCCS(C)(=O)=O)cc4)sc23)c(F)c1)c1ccccc1 [drawing 347]
< 250	COCCNCc1ccc(-c2cc3nccc(Oc4ccc(NC(=O)C5(C(=O)Nc6ccccc6)CC5)cc4F)c3s2)nc1 [drawing 350]
250 to 500	COCCNCc1ccc(-c2cc3nccc(Oc4ccc(NC(=O)CC(=O)N(C)c5ccc(F)cc5)cc4F)c3s2)nc1 [drawing 352]

test system: DU145 cells; assay: Scatter assay in DU145 cells (HGF-stimulated); assay type: cell-based; conditions: Homo sapiens, DU-145, last dose that created an inhibitory effect on scattering, 24 h, read-out: DU145 SCATT. INHIB IC50
Experimental: Scatter assays in DU145. The scatter assay is performed as described previously (Miura H, Nishimura K, Tsujimura A, Matsumiya K, Matsumoto K, Nakamura T, et al. Effects of hepatocyte growth factor on E-cadherin-mediated cell-cell adhesion in DU145 prostate cancer cells. Urology 2001; 58(6):1064-9) for DU145 prostate carcinoma cells with the indicated modifications. In brief, DU145 cells (ATCC) are seeded in 24-well plates at a density of 7×10^3 cells/well in MEM medium complemented with 10% FBS and cultured for 48 h, to allow the formation of small compact colonies of cells. Inhibitors are subsequently added at a range of doses (0.00032-10 uM) for 3 h. Cells are then stimulated to migrate by the addition of HGF (in the form of conditioned medium from 293T cells over-expressing the human HGF gene) and the culture is continued for another 24 h. The IC50 values is defined as the last dose that created an inhibitory effect on scattering. For the purpose of standardization a control is carried on every test plates for the DU145 scattering assays.

IC50 [nM]	SMILES
250 to 500	COCCNCc1ccc(-c2cc3nccc(Oc4ccc(NC(=O)CC(=O)N(C)c5ccccc5)cc4F)c3s2)nc1 [drawing 346]
250 to 500	CN(C(=O)CC(=O)Nc1ccc(Oc2ccnc3cc(-c4ccc(CNCCS(C)(=O)=O)cc4)sc23)c(F)c1)c1ccccc1 [drawing 347]
< 250	COCCNCc1ccc(-c2cc3nccc(Oc4ccc(NC(=O)C5(C(=O)Nc6ccccc6)CC5)cc4F)c3s2)nc1 [drawing 350]
250 to 500	COCCNCc1ccc(-c2cc3nccc(Oc4ccc(NC(=O)CC(=O)N(C)c5ccc(F)cc5)cc4F)c3s2)nc1 [drawing 352]

molecular target: T2, c-Met (Homo sapiens, UniProt P08581); assay: Inhibition of c-Met phosphorylation in MKN45 cells (direct ELISA); assay type: cell-based; conditions: 3 h treatment, read-out: CMET ELISA IN MKN45 IC50
T2 construct: endogenous in cells; host or cells: MKN45 gastric carcinoma cells
T2 sequence (P08581 25-1390): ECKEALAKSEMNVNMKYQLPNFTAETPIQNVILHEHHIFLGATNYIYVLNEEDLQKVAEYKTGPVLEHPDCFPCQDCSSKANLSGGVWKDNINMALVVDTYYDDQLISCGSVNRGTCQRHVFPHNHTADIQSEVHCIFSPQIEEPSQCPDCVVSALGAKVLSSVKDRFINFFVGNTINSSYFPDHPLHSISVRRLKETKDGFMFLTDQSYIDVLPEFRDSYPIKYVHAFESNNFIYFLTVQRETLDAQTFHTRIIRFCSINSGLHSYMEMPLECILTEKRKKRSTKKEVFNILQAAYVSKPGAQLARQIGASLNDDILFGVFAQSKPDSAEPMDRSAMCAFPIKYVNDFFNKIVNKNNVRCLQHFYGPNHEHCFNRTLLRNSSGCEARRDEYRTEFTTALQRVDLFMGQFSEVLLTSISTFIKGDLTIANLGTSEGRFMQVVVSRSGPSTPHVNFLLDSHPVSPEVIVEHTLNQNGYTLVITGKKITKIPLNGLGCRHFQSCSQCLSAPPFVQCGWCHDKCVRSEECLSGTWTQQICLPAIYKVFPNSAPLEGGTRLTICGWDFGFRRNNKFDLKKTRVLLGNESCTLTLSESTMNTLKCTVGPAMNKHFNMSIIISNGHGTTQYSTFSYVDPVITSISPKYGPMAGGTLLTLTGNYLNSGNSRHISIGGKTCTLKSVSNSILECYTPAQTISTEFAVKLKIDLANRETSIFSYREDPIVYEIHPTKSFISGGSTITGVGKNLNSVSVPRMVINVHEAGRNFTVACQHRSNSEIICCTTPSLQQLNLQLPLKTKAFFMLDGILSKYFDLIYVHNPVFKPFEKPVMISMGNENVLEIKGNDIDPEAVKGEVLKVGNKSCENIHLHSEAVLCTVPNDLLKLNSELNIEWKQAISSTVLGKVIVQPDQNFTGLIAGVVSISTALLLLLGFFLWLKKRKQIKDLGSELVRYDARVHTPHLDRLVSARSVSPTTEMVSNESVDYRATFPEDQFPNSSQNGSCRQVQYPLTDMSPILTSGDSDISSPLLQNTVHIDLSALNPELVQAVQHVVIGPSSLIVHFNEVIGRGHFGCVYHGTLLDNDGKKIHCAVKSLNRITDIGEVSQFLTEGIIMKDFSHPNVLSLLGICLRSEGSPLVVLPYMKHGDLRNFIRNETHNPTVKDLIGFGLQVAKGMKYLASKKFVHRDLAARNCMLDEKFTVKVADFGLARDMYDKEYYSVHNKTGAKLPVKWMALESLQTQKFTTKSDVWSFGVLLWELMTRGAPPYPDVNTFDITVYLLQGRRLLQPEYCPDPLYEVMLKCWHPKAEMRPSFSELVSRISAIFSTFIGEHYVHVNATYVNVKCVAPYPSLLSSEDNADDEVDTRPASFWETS
From the text: The following assay is used to determine inhibition of c-Met phosphorylation.
The c-Met receptor is expressed in numerous cancer cell lines derived from tumors of epithelial origin. In MKN45 gastric carcinoma cells the c-Met gene is amplified, resulting in several-fold overexpression of the receptor and its constitutive activation. For this reason constitutively high levels of ERK1/2 are also detected in these cells, independently of HGF-added stimulation (Smolen G A, Sordella R, Muir B, Mohapatra G, Barmettler A, Archibald H, et al. Amplification of MET may identify a subset of cancers with extreme sensitivity to the selective tyrosine kinase inhibitor PHA-665752. Proc Natl Acad Sci USA 2006). We have developed a sensitive method to follow c-Met phosphorylation in these cells. In previous studies with earlier generation c-Met inhibitors, we established that the IC50s for the inhibition of c-Met phosphorylation were identical using this novel ELISA approach and standard western blot procedure, with antibodies directed against the activating autocatalysis tyrosine residues of c-MET (Tyr Y1230-34-35).
Cell treatments: MKN45 cells are seeded into wells of 96-well plates at a density of 3×10^4 cells/well in RPMI medium supplemented with 10% FBS. HA-TPR-RON expressing 293T (clone 18) cells are seeded into wells of 96-well plates at a density of 3×10^4 cells/well in DMEM medium supplemented with 10% FBS. Cells are grown for 48 h prior to treatments with compounds of interest. Inhibitors are added to the medium in triplicate wells at the indicated doses. After 3 h of treatment, media is aspirated and cells are lysed by one freeze-thaw cycle in 50 μL/well hypotonic lysis buffer (25 mM HEPES pH 7.5, 10 mM NaCl with 1 mM 4-(2-aminoethyl)benzenesulfonyl fluoride hydrochloride, 200 μM sodium orthovanadate, 1 mM sodium fluoride, 10 μg/mL of leupeptin, 10 μg/mL of aprotinin/mL, 1 μg/mL of pepstatin and 50 μg/mL Na-p-tosyl-L-lysine chloromethyl ketone hydrochloride.
Detection of phosphorylated c-Met by direct ELISA: Lysate samples (5 μL) from wells of treatment plates are transferred to 80 μL of binding buffer (25 mM HEPES pH 7.5, 200 mM NaCl) in wells of high binding white polysterene 96-well plates (Corning). After an overnight protein binding incubation at 4° C., lysates are aspirated and wells are blocked for 1 h at 37° C. in TBST supplemented with 5% BSA. Plates are incubated with the primary antibodies anti-phospho-Tyrosine (Millipore, 4G10) diluted 1/15000 in TBST supplemented with 5% BSA for 1 h at room temperature. Plates are washed 3 times on a plate washer (SkanWasher, Molecular Devises), and incubated with the reporter antibody […] (Sigma) diluted 1/15000 in TBST supplemented with 5% BSA, for 1 h at room temperature. Plates are washed 3 times with TBST using on a plate washer and subsequently incubated with chemiluminescent substrate solution (ECL, Roche). Luminescence signal is captured on a Polar Star Optima apparatus (BMG LabTech).
Average values of the triplicate samples are used to prepare IC50 curves using a 4-parameter fit model. These curves are calculated using, for example, GraFit 5.0 software. For assay standardization purpose, an internal control is included on each experimental test plate.

IC50 [nM]	SMILES
< 250	COCCNCc1ccc(-c2cc3nccc(Oc4ccc(NC(=O)CC(=O)N(C)c5ccccc5)cc4F)c3s2)nc1 [drawing 346]
< 250	CN(C(=O)CC(=O)Nc1ccc(Oc2ccnc3cc(-c4ccc(CNCCS(C)(=O)=O)cc4)sc23)c(F)c1)c1ccccc1 [drawing 347]
< 250	COCCNCc1ccc(-c2cc3nccc(Oc4ccc(NC(=O)C5(C(=O)Nc6ccccc6)CC5)cc4F)c3s2)nc1 [drawing 350]
< 250	COCCNCc1ccc(-c2cc3nccc(Oc4ccc(NC(=O)CC(=O)N(C)c5ccc(F)cc5)cc4F)c3s2)nc1 [drawing 352]

test system: MKN45 tumor; assay: In vivo solid tumor disease model, MKN45; parameters: species or system mice; conditions: Mus musculus, MKN-45, po, 168 h; MKN45, 20 mg/kg orally daily, 7 days; read-out: Tumor Growth Inhibition (%)

SMILES	inhibition in vivo at 20 mg/kg [%]
COC[C@H](C)NCc1cccc(-c2cc3nccc(Oc4ccc(NC(=S)NC(=O)Cc5ccc(F)cc5)cc4F)c3s2)c1 [drawing 361]	25 to 50

same assay, conditions: Mus musculus, MKN-45, po, 192 h; MKN45, 20 mg/kg orally daily, 8 days; read-out: Tumor Growth Inhibition (%)

SMILES	inhibition in vivo at 20 mg/kg [%]
COCCNCc1ccc(-c2cc3nccc(Oc4ccc(NC(=S)NC(=O)Cc5ccccc5)cc4F)c3s2)cn1 [drawing 362]	< 25
COCCNCc1ccc(-c2cc3nccc(Oc4ccc(NC(=S)NC(=O)Cc5ccc(F)cc5)cc4F)c3s2)cn1 [drawing 363]	25 to 50
COCCNCc1ccc(-c2cc3nccc(Oc4ccc(NC(=O)C5(C(=O)Nc6ccccc6)CC5)cc4F)c3s2)cc1 [drawing 364]	≥ 75
COCCNCc1ccc(-c2cc3nccc(Oc4ccc(NC(=S)NC(=O)Cc5ccccc5OC)cc4F)c3s2)nc1 [drawing 365]	25 to 50

same assay, conditions: Mus musculus, MKN-45, po, 312 h; MKN45, 20 mg/kg orally daily, 13 days; read-out: Tumor Growth Inhibition (%)

SMILES	inhibition in vivo at 20 mg/kg [%]
COCCNCc1cnc(-c2cc3nccc(Oc4ccc(NC(=O)CC(=O)Nc5ccccc5)cc4F)c3s2)n1C [drawing 372]	25 to 50

same assay, conditions: Mus musculus, MKN-45, po, 336 h; MKN45, 40 mg/kg orally daily, 14 days; read-out: Tumor Growth Inhibition (%)

SMILES	inhibition in vivo at 40 mg/kg [%]
COCCNCCn1cc(-c2cc3nccc(Oc4ccc(NC(=O)CC(=O)N(C)c5ccccc5)cc4F)c3s2)cn1 [drawing 369]	< 25
COCCNCc1cnc(-c2cc3nccc(Oc4ccc(NC(=O)CC(=O)Nc5ccccc5)cc4F)c3s2)n1C [drawing 372]	25 to 50

molecular target: recombinant human c-Met/HGF receptor (Homo sapiens, UniProt P08581); assay: In vitro receptor tyrosine kinase assay (DELFIA), c-Met/HGF receptor; conditions: not given
Sequence (P08581 1078-1337): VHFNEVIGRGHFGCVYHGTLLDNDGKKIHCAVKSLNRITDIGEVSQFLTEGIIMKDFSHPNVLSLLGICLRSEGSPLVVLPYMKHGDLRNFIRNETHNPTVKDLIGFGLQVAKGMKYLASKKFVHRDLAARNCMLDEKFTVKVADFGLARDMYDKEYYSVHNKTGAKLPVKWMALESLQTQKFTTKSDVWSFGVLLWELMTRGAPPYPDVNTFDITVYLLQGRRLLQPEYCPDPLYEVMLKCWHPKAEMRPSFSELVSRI

IC50 [nM]	SMILES
< 250	COCCNCc1ccc(-c2cc3nccc(Oc4ccc(NC(=O)CC(=O)N(C)c5ccccc5)cc4F)c3s2)nc1 [drawing 346]
< 250	CN(C(=O)CC(=O)Nc1ccc(Oc2ccnc3cc(-c4ccc(CNCCS(C)(=O)=O)cc4)sc23)c(F)c1)c1ccccc1 [drawing 347]
< 250	COCCNCc1ccc(-c2cc3nccc(Oc4ccc(NC(=O)C5(C(=O)Nc6ccccc6)CC5)cc4F)c3s2)nc1 [drawing 350]
< 250	COCCNCc1ccc(-c2cc3nccc(Oc4ccc(NC(=O)CC(=O)N(C)c5ccc(F)cc5)cc4F)c3s2)nc1 [drawing 352]
